Assay results as given in patent publication US20160090556A1, “PRODUCTS COMPRISING MALODOR REDUCTION MATERIALS” (The Procter & Gamble Company, priority 2014, published 2016).
Like-named read-outs stand apart in the source and are kept apart here.

Assay: Liquid dish neat product liquid-air partition coefficient
Type: physicochemical
[1] = class code letter within Comment Code
[2] = codes K/L of the Comment Code, Table 1

| SMILES | Log of liquid dish neat product liquid-air partition coefficient (Comment Code K/L) | Comment Code: Log of liquid dish neat product liquid-air partition coefficient (code letters K, L) | also measured |
| --- | --- | --- | --- |
| CCCC(O)CCC1C(C)CCCC1(C)C (stereo not shown) [Material 1063] | K (Log of liquid dish neat product liquid-air partition coefficient greater than or equal to −7) | – | – |
| CCCCCCOC(=O)c1ccccc1 [Material 271] | – | – | Log of liquid dish neat product liquid-air partition coefficient (Comment Code K/L) [1]: K (Log of liquid dish neat product liquid-air partition coefficient greater than or equal to −7) |
| CCCCCC(=O)OCc1ccco1 [Material 338] | – | – | Log of liquid dish neat product liquid-air partition coefficient (Comment Code K/L) [1]: K (Log of liquid dish neat product liquid-air partition coefficient greater than or equal to −7) |
| CCCCCCCC(=O)OCCC(C)C [Material 237] | – | K (Log of liquid dish neat product liquid-air partition coefficient greater than or equal to −7) | – |
| CC1CC(C)(C)OC(Cc2ccccc2)O1 (stereo not shown) [Material 1003] | K (Log of liquid dish neat product liquid-air partition coefficient greater than or equal to −7) | – | – |
| C[C@H]1[C@@H]2C[C@H](C[C@@]13C=CC(=O)CC3)C2(C)C [Material 1143] | – | K (Log of liquid dish neat product liquid-air partition coefficient greater than or equal to −7) | Comment Code: Log of liquid dish neat product liquid-air partition coefficient [2]: K (Log of liquid dish neat product liquid-air partition coefficient greater than or equal to −7) |
| CC1=CCC(C23CCCC(C)(C2)OC3)C1(C)C (stereo not shown) [Material 570] | K (Log of liquid dish neat product liquid-air partition coefficient greater than or equal to −7) | K (Log of liquid dish neat product liquid-air partition coefficient greater than or equal to −7) | – |
| CC(=O)CCc1ccccc1 [Material 640] | – | K (Log of liquid dish neat product liquid-air partition coefficient greater than or equal to −7) | – |
| Cc1cc(O)cc(C)c1Cl [Material 557] | – | K (Log of liquid dish neat product liquid-air partition coefficient greater than or equal to −7) | – |
| C=CC(=C)CCCC(C)(C)O [Material 34] | – | – | Log of liquid dish neat product liquid-air partition coefficient (Comment Code K/L) [1]: K (Log of liquid dish neat product liquid-air partition coefficient greater than or equal to −7) |
| C=CC(C)CCCC(C)(C)O (stereo not shown) [Material 437] | – | K (Log of liquid dish neat product liquid-air partition coefficient greater than or equal to −7) | – |
| CC(=O)O[C@]1(C)CC[C@@]23C[C@@H]1C(C)(C)[C@@H]2CC[C@H]3C [Material 567] | K (Log of liquid dish neat product liquid-air partition coefficient greater than or equal to −7) | K (Log of liquid dish neat product liquid-air partition coefficient greater than or equal to −7) | – |
| CCC=CCC=CCCO [Material 929] | K (Log of liquid dish neat product liquid-air partition coefficient greater than or equal to −7) | – | – |
| COC1(C)CCC23CC1C(C)(C)C2CCC3C (stereo not shown) [Material 565] | K (Log of liquid dish neat product liquid-air partition coefficient greater than or equal to −7) | K (Log of liquid dish neat product liquid-air partition coefficient greater than or equal to −7) | – |
| O=Cc1ccc2c(c1)OCO2 [Material 287] | – | K (Log of liquid dish neat product liquid-air partition coefficient greater than or equal to −7) | – |
| C=C(C)C1CCC(C)(O)CC1 (stereo not shown) [Material 612] | K (Log of liquid dish neat product liquid-air partition coefficient greater than or equal to −7) | – | – |
| CC1(C)C2CCC3(C2)C1C1(CCC3(C)C)OCCO1 (stereo not shown) [Material 1144] | – | K (Log of liquid dish neat product liquid-air partition coefficient greater than or equal to −7) | Comment Code: Log of liquid dish neat product liquid-air partition coefficient [2]: K (Log of liquid dish neat product liquid-air partition coefficient greater than or equal to −7) |
